In ChEMBL document CHEMBL1144555, “Chemoenzymatic synthesis and antimicrobial activity evaluation of monoglucosyl diglycerides” (2007) one finds MIC data, which are given here for five molecules.

Holding throughout (assay type): functional
Test [1] relates to Candida albicans. The experiment in a line: Antimicrobial activity against Candida albicans.
Test [2] has as its system Enterococcus faecalis. The test can be described thus: Antimicrobial activity against Enterococcus faecalis ATCC 29212.
For test [3], the system named is Staphylococcus aureus. The test can be described thus: Antimicrobial activity against Staphylococcus aureus 85.
In test [4] the test system is Staphylococcus aureus. The experiment in a line: Antimicrobial activity against Staphylococcus aureus 52.
Test [5] concerns Staphylococcus aureus. The test can be described thus: Antimicrobial activity against Staphylococcus aureus ATCC 25923.
The test system of test [6] is Staphylococcus aureus. The test can be described thus: Antimicrobial activity against Staphylococcus aureus ATCC 105487.
Test [7] has as its system Mycobacterium tuberculosis. The experiment in a line: Antimicrobial activity against Mycobacterium tuberculosis H37Rv.
Test [8] has as its system Mycobacterium tuberculosis. The experiment in a line: Antimicrobial activity against Mycobacterium tuberculosis H190.
Test [9] deals with Pseudomonas aeruginosa. The test can be described thus: Antimicrobial activity against Pseudomonas aeruginosa ATCC 27753.
For test [10], the system named is Bacillus subtilis. The test can be described thus: Antimicrobial activity against Bacillus subtilis ATCC 6633.
Test [11] concerns Kluyveromyces marxianus. The test can be described thus: Antimicrobial activity against Candida pseudotropicalis.
Test [12] concerns Staphylococcus aureus. The test can be described thus: Antimicrobial activity against Staphylococcus aureus 87.
Test [13] deals with Mycobacterium tuberculosis. The experiment in a line: Antimicrobial activity against Mycobacterium tuberculosis H160.
In test [14] the test system is Escherichia coli. The experiment in a line: Antimicrobial activity against Escherichia coli ATCC 25922.

For orientation: MIC means the smallest concentration in the dilution series that meets the test's criterion for growth inhibition. For the molecule `CCCCC/C=C/C/C=C/CCCCCCCC(=O)OCC(CO[C@@H]1O[C@H](CO)[C@@H](O)[C@H](O)[C@H]1O)OC(=O)CCCCCCC/C=C/C/C=C/CCCCC` (mixture of isomers), the MIC in test [1], in test [2], in [3], in test [4], in test [5] and in test [6] was over 128 µg/mL each time. Moreover, the minimal inhibitory concentration (MIC) in test [7] is 64 µg/mL; in test [8], 128 µg/mL; in [9], over 128 µg/mL; in test [10], 128 µg/mL; in test [11], over 128 µg/mL; in test [12], 64 µg/mL. Besides, the MIC was 64 µg/mL in test [13] and over 128 µg/mL in test [14].
For the molecule `CCCCCCCC/C=C/CCCCCCCC(=O)OCC(CO[C@@H]1O[C@H](CO)[C@@H](O)[C@H](O)[C@H]1O)OC(=O)CCCCCCC/C=C/CCCCCCCC` (mixture of isomers), the minimal inhibitory concentration (MIC) in test [1], in test [2], in [3], in test [4], in test [5] and in [6] was over 128 µg/mL each time. The MIC in test [7], in test [8], in [9], in [10], in test [11] and in test [12] was over 128 µg/mL each time. In addition, the MIC in test [13] and in [14] was over 128 µg/mL in each case.
Regarding `CCCCCCCCCCCCCCCCCC(=O)OCC(CO[C@@H]1O[C@H](CO)[C@@H](O)[C@H](O)[C@H]1O)OC(=O)CCCCCCCCCCCCCCCCC` (mixture of isomers), the MIC in test [1], in [2], in [3], in test [4], in test [5] and in test [6] was over 128 µg/mL in each case. The MIC in test [7], in test [8], in [9], in test [10], in test [11] and in [12] was over 128 µg/mL each time. Further, the MIC in [13] and in [14] was over 128 µg/mL throughout.
Consider `CCCCCCCCCCCC(=O)OCC(CO[C@@H]1O[C@H](CO)[C@@H](O)[C@H](O)[C@H]1O)OC(=O)CCCCCCCCCCC` (mixture of isomers), for which the MIC in test [1], in test [2], in test [3], in test [4], in test [5] and in [6] was over 128 µg/mL each time. Also, the MIC in test [7], in [8], in test [9], in test [10], in test [11] and in test [12] was over 128 µg/mL throughout. Moreover, the minimal inhibitory concentration (MIC) in [13] and in test [14] was over 128 µg/mL each time.
As for `CCCCCCCC/C=C/CCCCCCCC(=O)OC(COC(=O)CCCCCCC)CO[C@@H]1O[C@H](CO)[C@@H](O)[C@H](O)[C@H]1O` (mixture of isomers), the MIC in test [1], in [2], in test [3], in test [4], in test [5] and in [6] was over 128 µg/mL throughout. Further, the MIC is 64 µg/mL in [7]; 64 µg/mL in test [8]; over 128 µg/mL in [9]; 128 µg/mL in [10]; over 128 µg/mL in test [11]; 64 µg/mL in test [12]. Moreover, the MIC was 64 µg/mL in [13] and over 128 µg/mL in test [14].
